The record followed here is patent US11739098B2 (BRISTOL-MYERS SQUIBB COMPANY, priority 2017, dated 2023).

Structures are written as SMILES. Where a name gives a salt, the structure may show the parent alone.

As usually defined, the IC50 is the point on the concentration scale where inhibition reaches its midpoint.

Holding throughout (type): cell-based
The target of test [1] is T1, human TLR8 (Homo sapiens, UniProt Q9NR97).
T1 construct: host or cells: HEK-Blue cells (HEK293-derived reporter line)
T1 sequence (Q9NR97 27-1041): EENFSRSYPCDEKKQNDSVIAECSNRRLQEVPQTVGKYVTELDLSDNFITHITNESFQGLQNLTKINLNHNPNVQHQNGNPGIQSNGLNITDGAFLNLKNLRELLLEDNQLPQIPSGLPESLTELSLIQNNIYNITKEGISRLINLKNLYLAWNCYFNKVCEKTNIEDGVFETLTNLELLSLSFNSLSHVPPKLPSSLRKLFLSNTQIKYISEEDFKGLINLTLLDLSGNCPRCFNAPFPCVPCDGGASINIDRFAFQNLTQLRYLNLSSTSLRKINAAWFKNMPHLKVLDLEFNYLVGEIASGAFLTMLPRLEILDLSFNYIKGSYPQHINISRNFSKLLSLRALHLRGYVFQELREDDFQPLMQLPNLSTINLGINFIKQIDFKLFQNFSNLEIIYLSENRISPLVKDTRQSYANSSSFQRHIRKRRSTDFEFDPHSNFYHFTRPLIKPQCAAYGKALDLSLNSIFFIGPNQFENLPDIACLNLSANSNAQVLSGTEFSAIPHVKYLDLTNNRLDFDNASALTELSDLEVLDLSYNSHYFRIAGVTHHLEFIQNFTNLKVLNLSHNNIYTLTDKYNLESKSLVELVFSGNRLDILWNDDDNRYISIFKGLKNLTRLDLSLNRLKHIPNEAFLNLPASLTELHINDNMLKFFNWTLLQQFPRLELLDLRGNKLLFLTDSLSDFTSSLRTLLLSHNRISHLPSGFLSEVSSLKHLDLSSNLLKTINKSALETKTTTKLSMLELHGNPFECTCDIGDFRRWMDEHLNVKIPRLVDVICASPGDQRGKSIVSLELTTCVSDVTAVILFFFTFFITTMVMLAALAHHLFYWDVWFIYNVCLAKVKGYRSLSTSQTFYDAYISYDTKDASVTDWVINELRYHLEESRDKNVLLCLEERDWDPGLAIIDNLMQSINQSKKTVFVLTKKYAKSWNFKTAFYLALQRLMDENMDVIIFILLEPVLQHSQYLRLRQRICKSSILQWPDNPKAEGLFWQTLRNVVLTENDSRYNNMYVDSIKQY
In words: TLR8 inhibition reporter assay (HEK-Blue cells, SEAP reporter, R848 stimulation). The note with it: HEK-Blue cells overexpressing human TLR8, SEAP reporter, R848 15.9 μM. A digest of the protocol:
(§1)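 Agonists (final): TLR7 gardiquimod 7.5 μM; TLR8 R848 15.9 μM; TLR9 ODN2006 5 nM. HEK-Blue reporter cells, 30 min RT compound pre-incubation, 0.05 nM–50 μM dose range, 22 h at 37 °C, colorimetric SEAP detection medium. % inhibition relative to agonist+DMSO and known-inhibitor wells.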
A general note: A reporter such as luciferase makes a cellular process visible.

Test [2] deals with T2, human TLR7 (Homo sapiens, UniProt Q9NYK1).
T2 construct: host or cells: HEK-Blue cells (HEK293-derived reporter line)
T2 sequence (Q9NYK1 27-1049): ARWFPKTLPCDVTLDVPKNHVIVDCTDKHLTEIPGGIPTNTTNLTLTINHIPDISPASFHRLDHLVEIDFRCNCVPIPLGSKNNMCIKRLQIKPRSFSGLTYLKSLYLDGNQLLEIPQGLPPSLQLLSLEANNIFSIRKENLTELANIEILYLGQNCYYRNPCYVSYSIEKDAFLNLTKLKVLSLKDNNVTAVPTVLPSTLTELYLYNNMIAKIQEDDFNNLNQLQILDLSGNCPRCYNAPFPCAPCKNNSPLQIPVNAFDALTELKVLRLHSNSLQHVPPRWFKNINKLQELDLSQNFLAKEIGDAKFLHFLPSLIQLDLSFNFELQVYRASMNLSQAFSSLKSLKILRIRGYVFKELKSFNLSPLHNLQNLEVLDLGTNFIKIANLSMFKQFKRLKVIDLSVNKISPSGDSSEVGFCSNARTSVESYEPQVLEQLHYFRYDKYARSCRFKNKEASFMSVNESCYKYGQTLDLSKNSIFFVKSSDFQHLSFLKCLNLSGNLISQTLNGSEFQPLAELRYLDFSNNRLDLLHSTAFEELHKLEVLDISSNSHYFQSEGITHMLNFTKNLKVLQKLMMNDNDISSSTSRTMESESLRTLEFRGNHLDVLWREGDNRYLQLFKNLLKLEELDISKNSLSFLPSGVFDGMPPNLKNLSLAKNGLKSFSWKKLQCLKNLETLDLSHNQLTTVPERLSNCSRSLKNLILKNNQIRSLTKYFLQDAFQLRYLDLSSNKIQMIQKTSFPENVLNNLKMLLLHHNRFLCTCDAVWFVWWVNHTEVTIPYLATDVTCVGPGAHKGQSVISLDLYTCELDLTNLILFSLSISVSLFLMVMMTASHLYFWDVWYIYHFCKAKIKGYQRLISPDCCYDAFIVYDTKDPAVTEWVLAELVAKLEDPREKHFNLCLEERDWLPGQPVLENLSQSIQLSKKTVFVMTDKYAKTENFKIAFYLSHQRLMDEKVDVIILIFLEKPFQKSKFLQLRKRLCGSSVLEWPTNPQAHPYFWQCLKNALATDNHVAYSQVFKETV
The experiment in a line: TLR7 inhibition reporter assay (HEK-Blue cells, SEAP reporter, gardiquimod stimulation). The settings on record: HEK-Blue cells overexpressing human TLR7, SEAP reporter, gardiquimod 7.5 μM. A digest of the protocol:
as §1

For test [3], the target named is T3, human TLR9 (Homo sapiens, UniProt Q9NR96).
T3 construct: host or cells: HEK-Blue cells (HEK293-derived reporter line)
T3 sequence (Q9NR96 26-1032): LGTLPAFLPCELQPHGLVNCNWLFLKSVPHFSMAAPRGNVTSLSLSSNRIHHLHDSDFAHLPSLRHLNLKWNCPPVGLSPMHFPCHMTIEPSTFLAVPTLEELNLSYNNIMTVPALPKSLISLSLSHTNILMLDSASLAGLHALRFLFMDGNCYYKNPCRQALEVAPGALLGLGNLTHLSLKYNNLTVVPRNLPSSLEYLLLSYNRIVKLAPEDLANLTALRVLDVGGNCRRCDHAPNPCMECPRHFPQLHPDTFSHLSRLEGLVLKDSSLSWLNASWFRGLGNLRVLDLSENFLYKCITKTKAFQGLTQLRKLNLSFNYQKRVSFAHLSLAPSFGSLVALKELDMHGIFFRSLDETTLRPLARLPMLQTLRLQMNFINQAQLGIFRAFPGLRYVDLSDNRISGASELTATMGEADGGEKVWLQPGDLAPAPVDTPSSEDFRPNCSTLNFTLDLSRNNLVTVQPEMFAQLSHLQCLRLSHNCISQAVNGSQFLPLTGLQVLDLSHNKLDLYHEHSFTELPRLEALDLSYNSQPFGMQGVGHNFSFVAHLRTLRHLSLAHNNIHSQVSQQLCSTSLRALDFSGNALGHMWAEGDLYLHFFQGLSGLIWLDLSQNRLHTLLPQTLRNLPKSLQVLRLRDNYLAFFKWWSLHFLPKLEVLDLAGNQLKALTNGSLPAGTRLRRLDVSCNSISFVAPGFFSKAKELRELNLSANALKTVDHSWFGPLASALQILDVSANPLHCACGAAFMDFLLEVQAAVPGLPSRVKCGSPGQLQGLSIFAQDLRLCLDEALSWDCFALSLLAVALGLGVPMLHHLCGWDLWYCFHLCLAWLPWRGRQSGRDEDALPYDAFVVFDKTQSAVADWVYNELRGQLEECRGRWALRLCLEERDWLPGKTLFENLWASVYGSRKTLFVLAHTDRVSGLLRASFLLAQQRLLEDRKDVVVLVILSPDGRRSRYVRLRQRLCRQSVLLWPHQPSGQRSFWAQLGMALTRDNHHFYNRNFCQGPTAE
The experiment in a line: TLR9 inhibition reporter assay (HEK-Blue cells, SEAP reporter, ODN2006 stimulation). The note with it: HEK-Blue cells overexpressing human TLR9, SEAP reporter, ODN2006 5 nM. A digest of the protocol: as §1

`Cc1cc(-c2[nH]c3ccc(C4CCN(C(=O)CCN5CCC(F)(F)CC5)CC4)cc3c2C(C)C)cn2nnnc12` [Example 628, 3-(4,4-difluoropiperidin-1-yl)-1-(4-(3-isopropyl-2-(8-methyltetrazolo[1,5-a]pyridin-6-yl)-1H-indol-5-yl)piperidin-1-yl)propan-1-one]: the concentration for half-maximal inhibition (IC50) in test [1] was less than 100 nM; in test [2] it was less than 100 nM; in test [3], 1000 to 50000 nM.
Turning to `CC(C)c1c(-c2c[nH]c3ncccc23)[nH]c2ccc(C3CCNCC3)cc12` [Example 17, 3-(3-isopropyl-5-(piperidin-4-yl)-1H-indol-2-yl)-1H-pyrrolo[2,3-b]pyridine], the results for the 50% inhibitory concentration (IC50) in test [1], in test [2] and in test [3] were less than 100 nM, less than 100 nM and 100 to 1000 nM, respectively.
For the compound `CC(C)c1c(-c2cnc3[nH]nc(N)c3c2)[nH]c2ccc(C3CCNCC3)cc12` [Example 99, 5-(3-isopropyl-5-(piperidin-4-yl)-1H-indol-2-yl)-1H-pyrazolo[3,4-b]pyridin-3-amine], the half-maximal inhibitory concentration (IC50) was 100 to 1000 nM in test [1], 100 to 1000 nM in test [2] and 1000 to 50000 nM in test [3].
Turning to `Cc1c(-c2[nH]c3ccc(C4CCN(CCS(C)(=O)=O)CC4)cc3c2C(C)C)cn2nnnc2c1C` [Example 786, 6-(3-isopropyl-5-(1-(2-(methylsulfonyl)ethyl)piperidin-4-yl)-1H-indol-2-yl)-7,8-dimethyltetrazolo[1,5-a]pyridine], the IC50 is less than 100 nM in test [1], less than 100 nM in test [2] and 1000 to 50000 nM in test [3].
Turning to `CC(C)c1c(-c2ccnc3c2NC(=O)CO3)[nH]c2ccc(C3CCNCC3)cc12` [Example 68, 8-(3-isopropyl-5-(piperidin-4-yl)-1H-indol-2-yl)-1H-pyrido[2,3-b][1,4]oxazin-2(3H)-one], the IC50 in test [1], in test [2] and in test [3] was 1000 to 50000 nM throughout.
In the case of `CC(C)c1c(-c2cnc3cnccn23)[nH]c2ccc(C3CCN(CC(=O)N(C)C)CC3)cc12` [Example 426, 2-(4-(2-(imidazo[1,2-a]pyrazin-3-yl)-3-isopropyl-1H-indol-5-yl)piperidin-1-yl)-N,N-dimethylacetamide], the values for the IC50 in test [1], in test [2] and in test [3] were 1000 to 50000 nM, greater than 3130 nM and 1000 to 50000 nM, respectively.
For `COc1cc(-c2[nH]c3ccc(C4CCN(CC(N)=O)CC4)cc3c2C(C)C)nn2ncnc12` [Example 284, 2-(4-(3-isopropyl-2-(8-methoxy-[1,2,4]triazolo[1,5-b]pyridazin-6-yl)-1H-indol-5-yl)piperidin-1-yl)acetamide], the IC50 is less than 100 nM in test [1], less than 100 nM in test [2] and 1000 to 50000 nM in test [3].
`CCc1c(-c2cnc3ncnn3c2)[nH]c2ccc(C3CCNCC3)cc12` [Example 26, 6-(3-ethyl-5-(piperidin-4-yl)-1H-indol-2-yl)-[1,2,4]triazolo[1,5-a]pyrimidine]: the 50% inhibitory concentration (IC50) in test [1], in test [2] and in test [3] was 100 to 1000 nM throughout.
In the case of `Cc1ccnc2c1c(-c1[nH]c3ccc(C4CCN(C(=O)CN(C)C)CC4)cc3c1C(C)C)cn2C` [Example 457, 1-(4-(2-(1,4-dimethyl-1H-pyrrolo[2,3-b]pyridin-3-yl)-3-isopropyl-1H-indol-5-yl)piperidin-1-yl)-2-(dimethylamino)ethan-1-one], the IC50 in test [1] was less than 100 nM; in test [2] it was less than 100 nM; in test [3], 1000 to 50000 nM.
`Cc1cc(-c2[nH]c3ccc(C4CCN(CC(=O)N(C)C)CC4)cc3c2C(C)C)cc2cn(C)nc12` [Example 379, 2-(4-(2-(2,7-dimethyl-2H-indazol-5-yl)-3-isopropyl-1H-indol-5-yl)piperidin-1-yl)-N,N-dimethylacetamide]: the IC50 is less than 100 nM in test [1], less than 100 nM in test [2] and 1000 to 50000 nM in test [3].
In the case of `Cc1nc2c(-c3[nH]c4ccc(C5CCN(CC(C)(C)O)CC5)cc4c3C(C)C)ccc(C)n2n1` [Example 768, 1-(4-(2-(2,5-dimethyl-[1,2,4]triazolo[1,5-a]pyridin-8-yl)-3-isopropyl-1H-indol-5-yl)piperidin-1-yl)-2-methylpropan-2-ol], the half-maximal inhibitory concentration (IC50) in test [1] was 1000 to 50000 nM; in test [2], greater than 3130 nM; in test [3], 1000 to 50000 nM.
Regarding `Cc1cc(-c2[nH]c3ccc(C4CCN(C(=O)CN(C)C)CC4)cc3c2C(C)C)c2ccccc2n1` [Example 533, 2-(dimethylamino)-1-(4-(3-isopropyl-2-(2-methylquinolin-4-yl)-1H-indol-5-yl)piperidin-1-yl)ethan-1-one], the results for the IC50 in test [1], in test [2] and in test [3] were less than 100 nM, less than 100 nM and 100 to 1000 nM, respectively.
In the case of `CNCCN1CCC(c2ccc3[nH]c(-c4ccnc5[nH]ncc45)c(C(C)C)c3c2)CC1` [Example 650, 2-(4-(3-isopropyl-2-(1H-pyrazolo[3,4-b]pyridin-4-yl)-1H-indol-5-yl)piperidin-1-yl)-N-methylethanamine dihydrochloride], the IC50 was less than 100 nM in test [1], less than 100 nM in test [2] and 100 to 1000 nM in test [3].
